Laboratory results taken from US8624040B2, “Substituted hydroxamic acids and uses thereof” (Millennium Pharmaceuticals, Inc., priority 2009, dated 2014).

Molecular target: T1, purified human HDAC6 (Homo sapiens, UniProt Q9UBN7)
T1 construct: purchased BPS Bioscience 5006
T1 sequence (Q9UBN7 1-1215): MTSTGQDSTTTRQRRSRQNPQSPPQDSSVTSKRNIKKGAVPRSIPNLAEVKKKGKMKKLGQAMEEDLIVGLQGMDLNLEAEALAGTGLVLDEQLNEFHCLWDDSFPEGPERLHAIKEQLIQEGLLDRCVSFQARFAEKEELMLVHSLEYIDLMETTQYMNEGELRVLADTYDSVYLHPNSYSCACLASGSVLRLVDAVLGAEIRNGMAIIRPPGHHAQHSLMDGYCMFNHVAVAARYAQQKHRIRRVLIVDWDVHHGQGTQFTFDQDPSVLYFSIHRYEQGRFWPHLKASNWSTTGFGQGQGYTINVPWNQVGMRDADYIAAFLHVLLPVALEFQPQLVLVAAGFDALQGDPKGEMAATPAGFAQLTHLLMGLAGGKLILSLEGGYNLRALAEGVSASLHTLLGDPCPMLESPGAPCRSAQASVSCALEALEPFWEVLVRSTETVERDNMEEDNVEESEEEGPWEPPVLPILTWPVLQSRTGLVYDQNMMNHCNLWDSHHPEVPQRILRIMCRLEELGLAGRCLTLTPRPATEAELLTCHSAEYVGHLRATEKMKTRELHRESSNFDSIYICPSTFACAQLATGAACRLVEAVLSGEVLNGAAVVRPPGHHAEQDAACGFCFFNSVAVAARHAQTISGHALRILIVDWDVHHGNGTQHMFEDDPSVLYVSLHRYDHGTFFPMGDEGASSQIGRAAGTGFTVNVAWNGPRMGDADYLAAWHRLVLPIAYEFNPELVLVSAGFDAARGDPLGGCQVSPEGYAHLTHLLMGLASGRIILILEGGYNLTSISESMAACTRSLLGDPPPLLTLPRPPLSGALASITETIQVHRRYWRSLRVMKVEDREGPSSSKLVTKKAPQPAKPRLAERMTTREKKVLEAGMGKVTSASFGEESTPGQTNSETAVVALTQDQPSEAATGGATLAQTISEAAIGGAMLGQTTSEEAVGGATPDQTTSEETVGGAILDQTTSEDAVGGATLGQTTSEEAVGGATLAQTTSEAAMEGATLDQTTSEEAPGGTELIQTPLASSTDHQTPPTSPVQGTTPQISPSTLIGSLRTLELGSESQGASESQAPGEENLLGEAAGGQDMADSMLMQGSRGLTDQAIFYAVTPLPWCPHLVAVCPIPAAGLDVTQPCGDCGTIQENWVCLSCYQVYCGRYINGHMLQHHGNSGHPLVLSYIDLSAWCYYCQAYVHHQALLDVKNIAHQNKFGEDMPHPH
Assay: HDAC6 Enzyme Assay
Format: biochemical
Details: enzyme inhibition, substrate Ac-Arg-Gly-Lys(Ac)-AMC, 1 hour at 30° C.
Description: To measure the inhibition of HDAC6 activity, purified human HDAC6 (BPS Bioscience; Cat. No. 5006) is incubated with substrate Ac-Arg-Gly-Lys(Ac)-AMC peptide (Bachem Biosciences; Cat. No. I-1925) for 1 hour at 30° C. in the presence of test compounds or vehicle DMSO control. The reaction is stopped with the HDAC inhibitor trichostatin A (Sigma; Cat. No. T8552) and the amount of Arg-Gly-Lys-AMC generated is quantitated by digestion with trypsin (Sigma; Cat. No. T1426) and subsequent measurement of the amount of AMC released using a fluorescent plate reader (Pherastar; BMG Technologies) set at Ex 340 nm and Em 460 nm. Concentration response curves are generated by calculating the fluorescence increase in test compound-treated samples relative to DMSO-treated controls, and enzyme inhibition (IC50) values are determined from those curves.

Structure (SMILES)	IC50 [nM]
O=C(NO)c1cc2c(s1)CN(C(=O)C1CCCCC1)CC2 [Compound 2, 6-(cyclohexylcarbonyl)-N-hydroxy-4,5,6,7-tetrahydrothieno[2,3-c]pyridine-2-carboxamide]	< 50
CC1(C(=O)N2CCc3cc(C(=O)NO)sc3C2)CCCCC1 [Compound 3, N-hydroxy-6-[(1-methylcyclohexyl)carbonyl]-4,5,6,7-tetrahydrothieno[2,3-c]pyridine-2-carboxamide]	< 50
O=C(NO)c1cc2c(s1)CN(C(=O)c1[nH]nc3c1CCCC3)CC2 [Compound 8, N-hydroxy-6-(4,5,6,7-tetrahydro-2H-indazol-3-ylcarbonyl)-4,5,6,7-tetrahydrothieno[2,3-c]pyridine-2-carboxamide]	< 50
O=C(NO)c1cc2c(s1)CN(C(=O)C(C1CCCCC1)C1CCCCC1)CC2 [Compound 10, 6-(dicyclohexylacetyl)-N-hydroxy-4,5,6,7-tetrahydrothieno[2,3-c]pyridine-2-carboxamide]	50 to 100
Cc1nc(C(F)(F)F)c(C(=O)N2CCc3cc(C(=O)NO)sc3C2)s1 [Compound 11, N-hydroxy-6-{[2-methyl-4-(trifluoromethyl)-1,3-thiazol-5-yl]carbonyl}-4,5,6,7-tetrahydrothieno[2,3-c]pyridine-2-carboxamide]	< 50
O=C(NO)c1cc2c(s1)CN(C(=O)C1(c3ccc(F)cc3Cl)CCCC1)CC2 [Compound 13, 6-{[1-(2-chloro-4-fluorophenyl)cyclopentyl]carbonyl}-N-hydroxy-4,5,6,7-tetrahydrothieno[2,3-c]pyridine-2-carboxamide]	< 50
O=C(NO)c1cc2c(s1)CN(C(=O)C13CC4CC(CC(C4)C1)C3)CC2 [Compound 14, 6-[1-adamantylcarbonyl]-N-hydroxy-4,5,6,7-tetrahydrothieno[2,3-c]pyridine-2-carboxamide]	< 50
Cc1oc(S(=O)(=O)N2CCCCC2)cc1C(=O)N1CCc2cc(C(=O)NO)sc2C1 [Compound 16, N-hydroxy-6-[2-methyl-5-(piperidin-1-ylsulfonyl)-3-furoyl]-4,5,6,7-tetrahydrothieno[2,3-c]pyridine-2-carboxamide]	< 50
CCCCS(=O)(=O)N1CCc2cc(C(=O)NO)sc2C1 [Compound 19, 6-(butylsulfonyl)-N-hydroxy-4,5,6,7-tetrahydrothieno[2,3-c]pyridine-2-carboxamide]	< 50
Cc1noc(C)c1S(=O)(=O)N1CCc2cc(C(=O)NO)sc2C1 [Compound 20, 6-[(3,5-dimethylisoxazol-4-yl)sulfonyl]-N-hydroxy-4,5,6,7-tetrahydrothieno[2,3-c]pyridine-2-carboxamide]	< 50
O=C(NO)c1cc2c(s1)CN(S(=O)(=O)c1ccc(C(F)(F)F)cc1)CC2 [Compound 21, N-hydroxy-6-{[4-(trifluoromethyl)phenyl]sulfonyl}-4,5,6,7-tetrahydrothieno[2,3-c]pyridine-2-carboxamide]	< 50
O=C(NO)c1cc2c(s1)CN(Cc1ccc3c(c1)OCCCO3)CC2 [Compound 22, 6-(3,4-dihydro-2H-1,5-benzodioxepin-7-ylmethyl)-N-hydroxy-4,5,6,7-tetrahydrothieno[2,3-c]pyridine-2-carboxamide]	< 50
O=C(NO)c1cc2c(s1)CN(Cc1cccc3nsnc13)CC2 [Compound 25, 6-(2,1,3-benzothiadiazol-4-ylmethyl)-N-hydroxy-4,5,6,7-tetrahydrothieno[2,3-c]pyridine-2-carboxamide]	< 50
CC(C)(C)C(=O)N1CCc2sc(C(=O)NO)cc2C1 [Compound 26, 5-(2,2-dimethylpropanoyl)-N-hydroxy-4,5,6,7-tetrahydrothieno[3,2-c]pyridine-2-carboxamide]	< 50
Cn1cccc1C(=O)N1CCc2sc(C(=O)NO)cc2C1 [Compound 27, N-hydroxy-5-[(1-methyl-1H-pyrrol-2-yl)carbonyl]-4,5,6,7-tetrahydrothieno[3,2-c]pyridine-2-carboxamide]	< 50
CC1(C(=O)N2CCc3sc(C(=O)NO)cc3C2)CCCCC1 [Compound 28, N-hydroxy-5-(1-methylcyclohexanecarbonyl)-4,5,6,7-tetrahydrothieno[3,2-c]pyridine-2-carboxamide]	< 50
Cc1cnc(C(=O)N2CCc3sc(C(=O)NO)cc3C2)cn1 [Compound 29, N-hydroxy-5-(5-methylpyrazine-2-carbonyl)-4,5,6,7-tetrahydrothieno[3,2-c]pyridine-2-carboxamide]	50 to 100

The next lines start with the values.

IC50 [nM]	Structure (SMILES)
< 50	CC(C)(C)C(=O)N1CCc2cc(C(=O)NO)sc2C1 [Compound 1, 6-(2,2-dimethylpropanoyl)-N-hydroxy-4,5,6,7-tetrahydrothieno[2,3-c]pyridine-2-carboxamide]
< 50	CC(C)(C(=O)N1CCc2cc(C(=O)NO)sc2C1)c1ccc(Cl)cc1 [Compound 4, 6-[2-(4-chlorophenyl)-2-methylpropanoyl]-N-hydroxy-4,5,6,7-tetrahydrothieno[2,3-c]pyridine-2-carboxamide]
< 50	O=C(NO)c1cc2c(s1)CN(C(=O)c1ccsc1)CC2 [Compound 5, N-hydroxy-6-(3-thienylcarbonyl)-4,5,6,7-tetrahydrothieno[2,3-c]pyridine-2-carboxamide]
< 50	CCC(Oc1ccccc1)C(=O)N1CCc2cc(C(=O)NO)sc2C1 (centres unmarked) [Compound 6, N-hydroxy-6-(2-phenoxybutanoyl)-4,5,6,7-tetrahydrothieno[2,3-c]pyridine-2-carboxamide]
< 50	COc1c(C(=O)N2CCc3cc(C(=O)NO)sc3C2)csc1Cl [Compound 7, 6-[(5-chloro-4-methoxy-3-thienyl)carbonyl]-N-hydroxy-4,5,6,7-tetrahydrothieno[2,3-c]pyridine-2-carboxamide]
50 to 100	CCC(C(=O)N1CCc2cc(C(=O)NO)sc2C1)(c1ccccc1)c1ccccc1 [Compound 9, 6-(2,2-diphenylbutanoyl)-N-hydroxy-4,5,6,7-tetrahydrothieno[2,3-c]pyridine-2-carboxamide]
> 1000	Cc1ccc(OCC(=O)N2CCc3cc(C(=O)NO)sc3C2)c(C)c1 [Compound 12, 6-[(2,4-dimethylphenoxy)acetyl]-N-hydroxy-4,5,6,7-tetrahydrothieno[2,3-c]pyridine-2-carboxamide]
50 to 100	O=C(NO)c1cc2c(s1)CN(C(=O)C1CCCCN1S(=O)(=O)c1ccccc1)CC2 (centres unmarked) [Compound 15, N-hydroxy-6-{[1-(phenylsulfonyl)piperidin-2-yl]carbonyl}-4,5,6,7-tetrahydrothieno[2,3-c]pyridine-2-carboxamide]
> 1000	O=C(NO)c1cc2c(s1)CN(C(=O)CC1c3ccccc3-c3ccccc31)CC2 [Compound 17, 6-(9H-fluoren-9-ylacetyl)-N-hydroxy-4,5,6,7-tetrahydrothieno[2,3-c]pyridine-2-carboxamide]
< 50	O=C(NO)c1cc2c(s1)CN(S(=O)(=O)CC(c1ccccc1)c1ccccc1)CC2 [Compound 18, 6-[(2,2-diphenylethyl)sulfonyl]-N-hydroxy-4,5,6,7-tetrahydrothieno[2,3-c]pyridine-2-carboxamide]
< 50	O=C(NO)c1cc2c(s1)CN(Cc1ccc(-n3cccn3)cc1)CC2 [Compound 23, N-hydroxy-6-[4-(1H-pyrazol-1-yl)benzyl]-4,5,6,7-tetrahydrothieno[2,3-c]pyridine-2-carboxamide]
< 50	Cc1nn(-c2ccccc2)nc1CN1CCc2cc(C(=O)NO)sc2C1 [Compound 24, N-hydroxy-6-[(5-methyl-2-phenyl-2H-1,2,3-triazol-4-yl)methyl]-4,5,6,7-tetrahydrothieno[2,3-c]pyridine-2-carboxamide]
